# Measured values taken from patent US20250092017A1, “2-PIPERIDYL OR 2-PYRAZOLYL SUBSTITUTED PYRIMIDINE COMPOUND SERVING AS EGFR INHIBITOR” (SUZHOU PUHE BIOPHARMA CO., LTD., priority 2022, published 2025).
# Where two headings read alike, the source gives them in different places.
# Key:
# [1] = molecular target: Ba/F3-FL-EGFR-L858R-T790M-C797S (Homo sapiens, UniProt P00533, T790M/C797S/L858R, cells depend on it); assay: CellTiter-Glo proliferation, Ba/F3-FL-EGFR-L858R-T790M-C797S; assay type: cell-based; conditions: 72 hours, read-out: Ba/F3-FL-EGFR-L858R-T790M-C797S IC50/nM
# Description: (§1) Promega CellTiter-Glo reagent was used to detect the effects of small molecule inhibitors on the proliferation of five Ba/F3 cell lines (Ba/F3-FL-EGFR, Ba/F3-FL-EGFR-L858R, Ba/F3-FL-EGFR-L858R-T790M-C797S, Ba/F3-TEL-EGFR-L858R-C797S and Ba/F3-FL-EGFR-del19-C797S).
# (§2) The cell lines were cultured in an incubator at 37° C. and 5% CO2. Cells were passaged regularly and cells in the logarithmic phase were used for plating. 95 μL of cell suspension was added to each well of the cell plate, and culture medium without cells (containing 0.1% DMSO) was added to the Min control wells. Substance addition for compound detection cell plate: 5 μL of 20× compound working solution was added to the cell culture plate as shown in the table below. 50 μL of DMSO-cell culture medium mixture was added to the Max control, with the final DMSO concentration of 0.1%. 5 μL of DMSO-cell culture medium mixture was added to the Max control. The final DMSO concentration was 0.1%.
# (§3) The compounds to be tested were added as per the table below
# (§4) Cell viability was detected by CellTiter-Glo luminescence assay. Data analysis:
# (§5) The cell proliferation inhibition rate (Inhibition Rate) data was processed using the following formula: […]
# (§6) wherein: RLUDrug represents the relative luminescence unit of the cells with the addition of drug, RLUMin represents the luminescence unit of the culture medium, and RLUMax represents the relative luminescence unit of the cells with the addition of DMSO.
# (§7) The inhibition rates corresponding to different concentrations of compounds were calculated in EXCEL, and then the inhibition rate curve was plotted using GraphPad Prism software and related parameters including the maximum and minimum inhibition rates of cells and IC50 values were calculated.
# EGFR (L858R/C797S) = EGFR (L858R/C797S) (Homo sapiens, UniProt P00533, C797S/L858R); assay: MSA (Mobility Shift Assay) kinase activity, EGFR-L858R-C797S; assay type: biochemical
# Description: (§8) The MSA (Mobility Shift Assay) method was used to detect the effects of small molecule inhibitors on the kinase activity of EGFR wild type and its mutants (EGFR^wt, EGFR-L858R, EGFR-L858R-T790M-C797S, EGFR-L858R-C797S).
# (§9) 10 μL of kinase solution at 2.5 times the final concentration was added to the compound wells and positive control Max wells; 10 μL of 1x kinase buffer was added to the negative control Min wells. The mixture was centrifuged at 1000 rpm for 30 seconds, and the reaction plate was shaken to mix the solution well and then incubated at room temperature for 10 minutes. A mixed solution of ATP and kinase substrate at 5/3 times the final concentration was prepared in 1x kinase buffer. 15 μL of a mixed solution of ATP and substrate at 5/3 times the final concentration was added to initiate the reaction. The 384-well plate was centrifuged at 1000 rpm for 30 seconds, and shaken to mix the solution well and then incubated at room temperature for the corresponding time. 30 μL of stop detection solution was added to stop the kinase reaction, and the mixture was centrifuged at 1000 rpm for 30 seconds, and then to mixed well by shaking. The conversion rate was read using Caliper EZ Reader.
# (§10) wherein: Conversion %_sample is the conversion rate reading of the sample; Conversion %_min is the mean of the negative control wells, representing the conversion rate reading of the wells without enzyme activity; Conversion %_max is the mean of the positive control wells, representing the conversion rate reading of the wells without compound inhibition.
# (§11) The log (inhibitor) vs. response —Variable slope of the analysis software GraphPad Prism 5 was used to fit the dose-effect curve, where the log value of the concentration was used as the X-axis and the percentage inhibition rate was used as the Y-axis, to obtain the IC50 value of each compound on the enzyme activity.
# (§12) The calculation formula is Y=Bottom+(Top-Bottom)/(1+10^((Log IC50−X)*Hill Slope))
# [2] = tested on: Ba/F3-FL-EGFR-del19-C797S; assay: CellTiter-Glo proliferation, Ba/F3-FL-EGFR-del19-C797S; assay type: cell-based; conditions: proliferation, 72 hours, CellTiter-Glo, read-out: Ba/F3-FL-EGFR-del19-C797S IC50/nM
# Description: as §1, §2, §3, §4, §5, §6, §7
# EGFR (L858R/T790M/C797S) = EGFR (L858R/T790M/C797S) (Homo sapiens, UniProt P00533, C797S/L858R/T790M); assay: MSA (Mobility Shift Assay) kinase activity, EGFR-L858R-T790M-C797S; assay type: biochemical
# Description: as §8, §9, §10, §11, §12
# EGFR (L858R) = EGFR (L858R) (Homo sapiens, UniProt P00533, L858R); assay: MSA (Mobility Shift Assay) kinase activity, EGFR-L858R; assay type: biochemical
# Description: as §8, §9, §10, §11, §12
# Ba/F3-FL-EGFR-L858R = Ba/F3-FL-EGFR-L858R (Homo sapiens, UniProt P00533, L858R, cells depend on it); assay: CellTiter-Glo proliferation, Ba/F3-FL-EGFR-L858R; assay type: cell-based; conditions: 72 hours, read-out: Ba/F3-FL-EGFR-L858R IC50/nM
# Description: as §1, §2, §3, §4, §5, §6, §7
# EGFR (wild-type) = EGFR (wild-type) (Homo sapiens, UniProt P00533); assay: MSA (Mobility Shift Assay) kinase activity, EGFR wild type; assay type: biochemical; conditions: read-out: EGFR wt/ IC50/nM
# Description: as §8, §9, §10, §11, §12
# [3] = molecular target: T1, Ba/F3-TEL-EGFR-L858R-C797S (Homo sapiens, UniProt P00533, C797S/L858R, cells depend on it); assay: CellTiter-Glo proliferation, Ba/F3-TEL-EGFR-L858R-C797S; assay type: cell-based; conditions: 72 hours, read-out: Ba/F3-TEL-EGFR-L858R-C797S IC50/nM
# T1 construct: fused on or other part: N-terminal TEL (ETV6) oligomerising part fused to the EGFR intracellular/kinase part; P41212 (Transcription factor ETV6)
# Description: as §1, §2, §3, §4, §5, §6, §7
# Ba/F3-FL-EGFR = molecular target: T2, Ba/F3-FL-EGFR (Homo sapiens, UniProt P00533); assay: CellTiter-Glo proliferation, Ba/F3-FL-EGFR; assay type: cell-based; conditions: 72 hours, read-out: Ba/F3-FL-EGFR IC50/nM
# T2 construct: FL read as full length
# Description: as §1, §2, §3, §4, §5, §6, §7
# Sequence of EGFR (L858R) (P00533 25-1210 L858R): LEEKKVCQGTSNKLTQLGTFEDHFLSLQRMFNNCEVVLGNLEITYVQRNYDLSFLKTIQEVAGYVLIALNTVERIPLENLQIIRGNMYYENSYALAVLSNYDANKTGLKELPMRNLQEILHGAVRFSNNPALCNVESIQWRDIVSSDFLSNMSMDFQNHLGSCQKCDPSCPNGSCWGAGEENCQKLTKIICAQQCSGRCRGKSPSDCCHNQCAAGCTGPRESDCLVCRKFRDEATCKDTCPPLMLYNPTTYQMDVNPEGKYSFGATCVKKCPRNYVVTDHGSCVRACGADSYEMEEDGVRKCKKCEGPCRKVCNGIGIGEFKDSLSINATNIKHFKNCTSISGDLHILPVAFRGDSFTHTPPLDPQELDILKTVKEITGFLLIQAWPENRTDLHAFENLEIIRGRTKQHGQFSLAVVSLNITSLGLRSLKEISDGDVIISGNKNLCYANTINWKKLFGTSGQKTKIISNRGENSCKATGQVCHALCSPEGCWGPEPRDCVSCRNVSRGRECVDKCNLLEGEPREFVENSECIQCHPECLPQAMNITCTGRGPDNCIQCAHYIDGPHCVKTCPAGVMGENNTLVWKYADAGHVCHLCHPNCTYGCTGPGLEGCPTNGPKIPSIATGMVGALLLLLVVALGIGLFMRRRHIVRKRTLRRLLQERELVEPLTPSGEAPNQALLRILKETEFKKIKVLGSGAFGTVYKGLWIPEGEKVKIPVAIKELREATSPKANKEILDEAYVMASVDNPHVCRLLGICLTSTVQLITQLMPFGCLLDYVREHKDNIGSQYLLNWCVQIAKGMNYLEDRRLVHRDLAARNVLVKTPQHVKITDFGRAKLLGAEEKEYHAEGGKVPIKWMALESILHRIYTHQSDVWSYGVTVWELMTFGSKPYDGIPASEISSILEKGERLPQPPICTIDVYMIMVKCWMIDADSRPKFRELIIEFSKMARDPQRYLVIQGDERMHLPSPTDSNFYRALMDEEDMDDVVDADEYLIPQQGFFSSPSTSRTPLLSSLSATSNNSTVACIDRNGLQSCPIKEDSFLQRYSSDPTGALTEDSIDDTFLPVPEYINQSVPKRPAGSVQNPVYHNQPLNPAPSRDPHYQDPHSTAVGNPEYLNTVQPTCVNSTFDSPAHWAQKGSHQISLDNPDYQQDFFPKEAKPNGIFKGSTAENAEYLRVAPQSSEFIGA
# T1 sequence (P00533 whole entry C797S/L858R, the tested form may be a part): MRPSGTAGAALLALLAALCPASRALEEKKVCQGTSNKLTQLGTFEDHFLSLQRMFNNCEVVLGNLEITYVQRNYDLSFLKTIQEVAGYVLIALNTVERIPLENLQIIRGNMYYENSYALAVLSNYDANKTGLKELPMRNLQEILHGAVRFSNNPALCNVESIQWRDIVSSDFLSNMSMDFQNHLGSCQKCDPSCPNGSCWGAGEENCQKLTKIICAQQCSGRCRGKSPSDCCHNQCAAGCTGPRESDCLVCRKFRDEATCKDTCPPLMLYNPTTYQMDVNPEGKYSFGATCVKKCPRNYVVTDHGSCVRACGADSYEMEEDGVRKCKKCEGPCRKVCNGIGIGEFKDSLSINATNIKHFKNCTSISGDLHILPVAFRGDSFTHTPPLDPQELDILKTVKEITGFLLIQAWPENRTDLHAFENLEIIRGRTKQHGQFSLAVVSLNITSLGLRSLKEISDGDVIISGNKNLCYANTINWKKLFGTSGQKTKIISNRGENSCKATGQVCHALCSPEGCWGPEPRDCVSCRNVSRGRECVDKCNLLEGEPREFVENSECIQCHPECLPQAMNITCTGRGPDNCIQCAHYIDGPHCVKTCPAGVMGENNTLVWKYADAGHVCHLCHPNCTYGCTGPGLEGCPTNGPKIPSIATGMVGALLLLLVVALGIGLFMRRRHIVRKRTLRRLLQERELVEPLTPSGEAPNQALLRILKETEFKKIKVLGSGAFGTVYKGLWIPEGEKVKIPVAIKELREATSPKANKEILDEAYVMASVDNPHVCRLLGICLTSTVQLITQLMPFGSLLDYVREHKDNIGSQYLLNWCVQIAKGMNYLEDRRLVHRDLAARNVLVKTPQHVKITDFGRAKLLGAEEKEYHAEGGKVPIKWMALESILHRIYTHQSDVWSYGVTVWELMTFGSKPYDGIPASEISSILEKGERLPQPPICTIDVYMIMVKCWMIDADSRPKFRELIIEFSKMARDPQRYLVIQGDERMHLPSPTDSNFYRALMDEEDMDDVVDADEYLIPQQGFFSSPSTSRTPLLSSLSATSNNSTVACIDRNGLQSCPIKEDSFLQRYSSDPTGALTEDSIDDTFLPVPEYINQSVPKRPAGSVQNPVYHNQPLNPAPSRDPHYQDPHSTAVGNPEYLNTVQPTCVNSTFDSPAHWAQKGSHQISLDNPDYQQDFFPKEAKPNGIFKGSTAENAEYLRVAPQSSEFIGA
# Sequence of EGFR (L858R/C797S) (P00533 25-1210 C797S/L858R): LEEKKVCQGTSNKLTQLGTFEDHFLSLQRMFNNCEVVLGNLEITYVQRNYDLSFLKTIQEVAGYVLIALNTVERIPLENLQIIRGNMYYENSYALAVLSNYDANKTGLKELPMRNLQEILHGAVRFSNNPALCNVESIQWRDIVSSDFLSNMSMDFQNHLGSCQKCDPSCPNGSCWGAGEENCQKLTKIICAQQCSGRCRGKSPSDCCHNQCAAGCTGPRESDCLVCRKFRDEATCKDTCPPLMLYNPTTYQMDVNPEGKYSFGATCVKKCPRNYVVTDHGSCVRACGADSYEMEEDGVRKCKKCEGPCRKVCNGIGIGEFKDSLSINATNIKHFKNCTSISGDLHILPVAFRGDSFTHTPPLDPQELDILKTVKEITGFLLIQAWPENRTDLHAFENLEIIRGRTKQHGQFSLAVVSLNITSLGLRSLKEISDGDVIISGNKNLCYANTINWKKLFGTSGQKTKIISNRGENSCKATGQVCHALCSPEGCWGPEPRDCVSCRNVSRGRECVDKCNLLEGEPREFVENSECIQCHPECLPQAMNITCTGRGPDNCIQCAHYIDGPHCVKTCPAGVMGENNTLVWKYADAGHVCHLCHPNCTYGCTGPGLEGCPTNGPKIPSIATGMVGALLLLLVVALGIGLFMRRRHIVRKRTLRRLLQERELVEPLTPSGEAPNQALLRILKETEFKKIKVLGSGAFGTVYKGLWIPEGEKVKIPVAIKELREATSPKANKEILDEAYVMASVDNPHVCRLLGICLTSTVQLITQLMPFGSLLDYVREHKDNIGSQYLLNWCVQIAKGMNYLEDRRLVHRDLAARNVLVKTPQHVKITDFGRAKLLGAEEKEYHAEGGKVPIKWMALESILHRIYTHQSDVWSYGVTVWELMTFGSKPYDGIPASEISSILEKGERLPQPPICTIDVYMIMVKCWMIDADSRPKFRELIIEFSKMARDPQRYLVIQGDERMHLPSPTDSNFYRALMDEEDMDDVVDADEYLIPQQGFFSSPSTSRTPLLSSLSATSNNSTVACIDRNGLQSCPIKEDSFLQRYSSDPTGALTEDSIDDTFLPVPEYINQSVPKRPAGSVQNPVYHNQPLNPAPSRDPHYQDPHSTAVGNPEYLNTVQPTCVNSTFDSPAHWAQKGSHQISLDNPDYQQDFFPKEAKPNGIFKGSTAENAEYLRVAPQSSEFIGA
# Sequence of EGFR (L858R/T790M/C797S) (P00533 25-1210 T790M/C797S/L858R): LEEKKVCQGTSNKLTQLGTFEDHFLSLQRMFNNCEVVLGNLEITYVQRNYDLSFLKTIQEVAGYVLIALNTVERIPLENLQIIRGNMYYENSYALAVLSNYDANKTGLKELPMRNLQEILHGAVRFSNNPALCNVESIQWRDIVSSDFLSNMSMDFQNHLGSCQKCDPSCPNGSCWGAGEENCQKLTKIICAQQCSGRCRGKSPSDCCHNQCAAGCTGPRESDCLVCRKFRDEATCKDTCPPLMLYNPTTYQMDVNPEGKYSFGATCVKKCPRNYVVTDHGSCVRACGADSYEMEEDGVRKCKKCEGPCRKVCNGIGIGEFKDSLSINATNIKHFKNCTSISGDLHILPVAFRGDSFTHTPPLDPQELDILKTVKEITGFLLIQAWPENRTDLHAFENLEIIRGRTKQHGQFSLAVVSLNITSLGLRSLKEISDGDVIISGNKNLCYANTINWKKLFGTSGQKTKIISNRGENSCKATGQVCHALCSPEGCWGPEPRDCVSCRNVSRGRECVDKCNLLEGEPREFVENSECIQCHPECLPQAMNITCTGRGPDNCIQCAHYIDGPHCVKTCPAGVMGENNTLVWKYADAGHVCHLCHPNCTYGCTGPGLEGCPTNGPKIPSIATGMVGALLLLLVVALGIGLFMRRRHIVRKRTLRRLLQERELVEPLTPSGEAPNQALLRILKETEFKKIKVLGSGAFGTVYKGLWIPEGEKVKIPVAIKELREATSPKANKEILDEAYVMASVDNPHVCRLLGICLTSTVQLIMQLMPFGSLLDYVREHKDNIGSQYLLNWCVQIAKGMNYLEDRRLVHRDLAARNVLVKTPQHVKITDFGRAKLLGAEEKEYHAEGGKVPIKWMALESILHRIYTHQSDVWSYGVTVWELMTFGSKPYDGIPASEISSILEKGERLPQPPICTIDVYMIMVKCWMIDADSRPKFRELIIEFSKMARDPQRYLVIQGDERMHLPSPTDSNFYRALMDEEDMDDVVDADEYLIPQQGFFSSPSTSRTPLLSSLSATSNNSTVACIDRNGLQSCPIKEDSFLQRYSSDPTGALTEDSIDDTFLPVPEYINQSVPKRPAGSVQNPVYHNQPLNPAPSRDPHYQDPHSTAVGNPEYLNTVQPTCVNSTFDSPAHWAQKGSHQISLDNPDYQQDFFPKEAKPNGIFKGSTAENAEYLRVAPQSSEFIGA
SMILES,GI50 [1],IC50 (EGFR (L858R/C797S)),IC50 ([2]; 72 h),IC50 (EGFR (L858R/T790M/C797S)),IC50 (EGFR (L858R)),GI50 (Ba/F3-FL-EGFR-L858R),IC50 (EGFR (wild-type)),GI50 [3],GI50 (Ba/F3-FL-EGFR),IC50 [2]
CC(C)c1ccc(N2CC(CS(C)(=O)=O)C2)c2cnc(Nc3ccnc(-c4cnn(CC(F)(F)F)c4)n3)cc12 [Compound H11],123 nM,5.1 nM,97 nM,0.44 nM,5.8 nM,40 nM,24.3 nM,37 nM,> 10000 nM,–
"CC(C)c1ccc(N2CC(CS(C)(=O)=O)C2)c2cnc(Nc3ccnc(N4CCC(O)C(F)C4)n3)cc12 (centres unmarked) [Control A, reference compound]",38 nM,11 nM,–,0.19 nM,7.1 nM,176 nM,30.2 nM,52 nM,2020 nM,–
CC(C)c1ccc(N2CC(CC(N)=O)C2)c2cnc(Nc3ccnc(N4CCC(O)C(F)C4)n3)cc12 (centres unmarked) [Compound P7],554 nM,22 nM,–,0.21 nM,14 nM,771 nM,50.5 nM,271 nM,7380 nM,–
CCCS(=O)(=O)n1cc(-c2nccc(Nc3cc4c(C(C)C)ccc(N5CC(CS(C)(=O)=O)C5)c4cn3)n2)cn1 [Compound H6],90 nM,2.2 nM,–,0.3 nM,1.5 nM,–,5.2 nM,40 nM,559 nM,48 nM
CC(C)c1ccc(N2CC(CC(N)=O)C2)c2cnc(Nc3ccnc(-c4cnn(S(=O)(=O)C5CC5)c4)n3)cc12 [Compound H4],146 nM,2.9 nM,–,0.3 nM,2.1 nM,46 nM,6.1 nM,39 nM,628 nM,–
CC(C)c1ccc(N2CC3(CC(S(C)(=O)=O)C3)C2)c2cnc(Nc3ccnc(-c4cnn(S(=O)(=O)C5CC5)c4)n3)cc12 [Compound P3],248 nM,10.6 nM,–,0.71 nM,5.8 nM,55 nM,17.9 nM,43 nM,889 nM,–
CC(C)c1ccc(N2CC(CS(C)(=O)=O)C2)c2cnc(Nc3ccnc(-c4cn[nH]c4)n3)cc12 [Compound H3],462 nM,4.7 nM,–,0.7 nM,5.6 nM,–,11.7 nM,188 nM,854 nM,216 nM
CC(C)c1ccc(N2CC(NS(C)(=O)=O)C2)c2cnc(Nc3ccnc(N4CCC(C)(O)C(F)C4)n3)cc12 (centres unmarked) [Compound P51],63 nM,4.2 nM,181 nM,0.12 nM,2.5 nM,86 nM,13.4 nM,28 nM,1750 nM,–
CC(C)c1ccc(N2CC(CS(C)(=O)=O)C2)c2cnc(Nc3ccnc(-c4cnn(S(=O)(=O)C5CCOCC5)c4)n3)cc12 [Compound H10],219 nM,7.2 nM,101 nM,0.34 nM,8.1 nM,94 nM,30.3 nM,54 nM,1080 nM,–
CC(C)c1ccc(N2CC(NS(C)(=O)=O)C2)c2cnc(Nc3ccnc(N4CCC(O)CC4)c3)nc12 [Compound P6],–,89.8 nM,–,6.1 nM,45.2 nM,–,> 100 nM,–,–,–
CC(C)c1ccc(N2C[C@H](NS(C)(=O)=O)[C@H]2C)c2cnc(Nc3ccnc(N4CCC(O)C(F)C4)n3)cc12 (some centres unmarked) [Compound P25],11 nM,1.22 nM,71 nM,0.08 nM,0.77 nM,42 nM,5.1 nM,15 nM,618 nM,–
CC(C)c1ccc(N2CC(CS(C)(=O)=O)C2)c2cnc(Nc3ccnc(-c4cnn(S(=O)(=O)C5(C)CC5)c4)n3)cc12 [Compound H18],150 nM,5 nM,69 nM,0.6 nM,2.6 nM,73 nM,7.3 nM,46 nM,658 nM,–
CC(C)c1ccc(N2CC(NC(=O)N(C)C)C2)c2cnc(Nc3ccnc(N4CCC(O)C(F)C4)n3)cc12 (centres unmarked) [Compound P10],–,41 nM,–,0.56 nM,43.2 nM,–,> 100 nM,–,–,–
CC(C)c1ccc(N2CC(NS(C)(=O)=O)C2)c2cnc(Nc3ccnc(N4CCC(O)C(C)(F)C4)n3)cc12 (centres unmarked) [Compound P46],271 nM,9.3 nM,–,0.61 nM,6.2 nM,208 nM,41.8 nM,88 nM,3110 nM,308 nM
CC(C)c1ccc(N2CC(CS(C)(=O)=O)C2)c2cnc(Nc3ccnc(-c4cnn(S(=O)(=O)C5CCC5)c4)n3)cc12 [Compound H13],158 nM,2.5 nM,23 nM,0.91 nM,1.8 nM,44 nM,11.4 nM,18 nM,640 nM,–
CC(C)c1ccc(N2CC(NS(C)(=O)=O)C2)c2cnc(Nc3ccnc(N4CCC(O)C(C)(F)C4)n3)cc12 (centres unmarked) [Compound P45],38 nM,7.6 nM,265 nM,0.18 nM,4.1 nM,181 nM,20.7 nM,61 nM,2780 nM,–
CC(C)c1ccc(N2CC(NS(=O)(=O)c3cccnc3)C2)c2cnc(Nc3ccnc(N4CCC(O)C(F)C4)n3)cc12 (centres unmarked) [Compound P28],–,27 nM,–,0.34 nM,13 nM,–,64 nM,–,–,–
CC(C)n1c(=O)cc(N2CC(CS(C)(=O)=O)C2)c2cnc(Nc3ccnc(N4CCC(O)C(F)C4)n3)cc21 (centres unmarked) [Compound P14],–,11.8 nM,–,0.12 nM,9.5 nM,–,80.7 nM,–,–,–
CC(C)c1ccc(N2CC3(C2)CN(S(C)(=O)=O)C3)c2cnc(Nc3ccnc(N4CCC(O)C(F)C4)n3)cc12 (centres unmarked) [Compound P11],–,> 100 nM,–,4.8 nM,> 100 nM,–,> 100 nM,–,–,–
